# Source: ChEMBL document CHEMBL3044672, “N9- and N7-(Chloromethyl Phenymethyl)Chloropurine Derivatives from , '-Dichloroxylenes: Synthesis and Anticancer Activity” (2005)
# Key:
# Type in all cases: functional
# SF-268 = test: Cytotoxicity against Homo sapiens (human) SF268 cells assessed as cell growth at 10^-4 M after 48 hr by […] assay; conditions: SF-268, 48 h, read-out: Activity
# MCF7 = test: Cytotoxicity against Homo sapiens (human) MCF7 cells after 48 hr by sulforhodamine B assay; conditions: MCF7, 48 h
# BT-549 = test: Cytotoxicity against Homo sapiens (human) BT549 cells after 48 hr by sulforhodamine B assay; conditions: BT-549, 48 h
# ACHN = test: Cytotoxicity against Homo sapiens (human) ACHN cells after 48 hr by sulforhodamine B assay; conditions: for CC50: read-out: LC50 (the source's name)
# NCI-H226 = test: Cytotoxicity against Homo sapiens (human) NCI-H226 cells after 48 hr by sulforhodamine B assay; conditions: NCI-H226, 48 h; for CC50: read-out: LC50 (the source's name)
# SK-MEL-28 = test: Cytotoxicity against Homo sapiens (human) SK-MEL-28 cells after 48 hr by sulforhodamine B assay; conditions: SK-MEL-28, 48 h
# EKVX = test: Cytotoxicity against Homo sapiens (human) EKVX cells after 48 hr by sulforhodamine B assay; conditions: for CC50: read-out: LC50 (the source's name)
# MDA-MB-435 = test: Cytotoxicity against Homo sapiens (human) MDA-MB-435 cells after 48 hr by sulforhodamine B assay; conditions: MDA-MB-435, 48 h
# A498 = test: Cytotoxicity against Homo sapiens (human) A498 cells after 48 hr by sulforhodamine B assay; conditions: A498, 48 h
# DU-145 = test: Cytotoxicity against Homo sapiens (human) DU145 cells after 48 hr by sulforhodamine B assay; conditions: DU-145, 48 h
# SNB-19 = test: Cytotoxicity against Homo sapiens (human) SNB19 cells after 48 hr by sulforhodamine B assay; conditions: SNB-19, 48 h
# SF-539 = test: Cytotoxicity against Homo sapiens (human) SF539 cells after 48 hr by sulforhodamine B assay; conditions: SF-539, 48 h
# CAKI-1 = test: Cytotoxicity against Homo sapiens (human) Caki1 cells after 48 hr by sulforhodamine B assay; conditions: CAKI-1, 48 h; for CC50: read-out: LC50 (the source's name)
# OVCAR-5 = test: Cytotoxicity against Homo sapiens (human) OVCAR5 cells after 48 hr by sulforhodamine B assay; conditions: OVCAR-5, 48 h; for CC50: read-out: LC50 (the source's name)
# U-251 = test: Cytotoxicity against Homo sapiens (human) U251 cells after 48 hr by sulforhodamine B assay; conditions: U-251, 48 h
# NCI-H322M = test: Cytotoxicity against Homo sapiens (human) NCI-H322M cells after 48 hr by sulforhodamine B assay; conditions: for CC50: read-out: LC50 (the source's name)
# SW-620 = test: Cytotoxicity against Homo sapiens (human) SW620 cells after 48 hr by sulforhodamine B assay; conditions: SW-620, 48 h; for CC50: read-out: LC50 (the source's name)
# M14 = test: Cytotoxicity against Homo sapiens (human) M14 cells after 48 hr by sulforhodamine B assay; conditions: M14, 48 h
# SN12C = test: Cytotoxicity against Homo sapiens (human) SN12C cells after 48 hr by sulforhodamine B assay
# IGROV-1 = test: Cytotoxicity against Homo sapiens (human) IGROV1 cells after 48 hr by sulforhodamine B assay; conditions: IGROV-1, 48 h
# PC-3 = test: Cytotoxicity against Homo sapiens (human) PC3 cells after 48 hr by sulforhodamine B assay; conditions: PC-3, 48 h
# SK-MEL-2 = test: Cytotoxicity against Homo sapiens (human) SK-MEL-2 cells after 48 hr by sulforhodamine B assay; conditions: SK-MEL-2, 48 h
# OVCAR-3 = test: Cytotoxicity against Homo sapiens (human) OVCAR3 cells after 48 hr by sulforhodamine B assay; conditions: OVCAR-3, 48 h
# NCI-H460 = test: Cytotoxicity against Homo sapiens (human) NCI-H460 cells after 48 hr by sulforhodamine B assay; conditions: NCI-H460, 48 h; for CC50: read-out: LC50 (the source's name)
# OVCAR-8 = test: Cytotoxicity against Homo sapiens (human) OVCAR8 cells after 48 hr by sulforhodamine B assay; conditions: OVCAR-8, 48 h
# SF-295 = test: Cytotoxicity against Homo sapiens (human) SF295 cells after 48 hr by sulforhodamine B assay; conditions: SF-295, 48 h; for CC50: read-out: LC50 (the source's name)
# SK-MEL-5 = test: Cytotoxicity against Homo sapiens (human) SK-MEL-5 cells after 48 hr by sulforhodamine B assay; conditions: SK-MEL-5, 48 h
# UO-31 = test: Cytotoxicity against Homo sapiens (human) UO31 cells after 48 hr by sulforhodamine B assay; conditions: UO-31, 48 h
# HT-29 = test: Cytotoxicity against Homo sapiens (human) HT-29 cells after 48 hr by sulforhodamine B assay; conditions: HT-29, 48 h; for CC50: read-out: LC50 (the source's name)
# 786-0 = test: Cytotoxicity against Homo sapiens (human) 786-0 cells after 48 hr by sulforhodamine B assay; conditions: 786-0, 48 h
# T47D = test: Cytotoxicity against Homo sapiens (human) T47D cells after 48 hr by sulforhodamine B assay
smiles,measurement,setting,value
ClCc1ccc(Cn2cnc3c(Cl)nc(Cl)nc32)cc1,growth at 100 µM,SF-268,0%
same,GI50,MCF7,1.74 µM
same,LC50 (concentration killing 50% of cells),MCF7,> 100 µM
same,TGI,MCF7,3.98 µM
same,GI50,BT-549,15.8 µM
same,LC50 (50% lethal concentration),BT-549,56.2 µM
same,TGI,BT-549,29.5 µM
same,GI50,ACHN,2.34 µM
same,TGI,ACHN,5.25 µM
same,CC50,ACHN,14.8 µM
same,GI50,NCI-H226,3.55 µM
same,TGI,NCI-H226,9.55 µM
same,CC50,NCI-H226,33.9 µM
same,GI50,SK-MEL-28,2.69 µM
same,LC50 (concentration killing 50% of cells),SK-MEL-28,46.8 µM
same,TGI,SK-MEL-28,6.92 µM
same,GI50,EKVX,17.4 µM
same,TGI,EKVX,31.6 µM
same,CC50,EKVX,58.9 µM
same,GI50,MDA-MB-435,12.6 µM
same,LC50,MDA-MB-435,50.1 µM
same,TGI,MDA-MB-435,25.1 µM
same,GI50,A498,12 µM
same,"LC50 (lethal concentration, 50% cell kill)",A498,52.5 µM
same,TGI,A498,25.1 µM
same,GI50,DU-145,5.62 µM
same,LC50,DU-145,42.7 µM
same,TGI,DU-145,17.8 µM
same,GI50,SNB-19,2.51 µM
same,LC50,SNB-19,> 100 µM
same,TGI,SNB-19,7.08 µM
same,GI50,SF-539,17 µM
same,LC50 (concentration killing 50% of cells),SF-539,56.2 µM
same,TGI,SF-539,30.9 µM
same,GI50,CAKI-1,9.12 µM
same,TGI,CAKI-1,21.4 µM
same,CC50,CAKI-1,46.8 µM
same,GI50,OVCAR-5,18.2 µM
same,TGI,OVCAR-5,34.7 µM
same,CC50,OVCAR-5,66.1 µM
same,GI50,U-251,2.04 µM
same,LC50 (concentration killing 50% of cells),U-251,7.41 µM
same,TGI,U-251,3.89 µM
same,GI50,NCI-H322M,12.6 µM
same,TGI,NCI-H322M,25.1 µM
same,CC50,NCI-H322M,50.1 µM
same,GI50,SW-620,3.8 µM
same,TGI,SW-620,17.4 µM
same,CC50,SW-620,56.2 µM
same,GI50,M14,10.7 µM
same,LC50,M14,53.7 µM
same,TGI,M14,24 µM
same,GI50,SN12C,7.24 µM
same,LC50 (50% lethal concentration),SN12C,51.3 µM
same,TGI,SN12C,20.9 µM
same,GI50,IGROV-1,15.1 µM
same,LC50,IGROV-1,60.3 µM
same,TGI,IGROV-1,30.2 µM
same,GI50,PC-3,2.69 µM
same,LC50 (concentration causing 50% cell kill),PC-3,45.7 µM
same,TGI,PC-3,7.24 µM
same,GI50,SK-MEL-2,19.9 µM
same,LC50 (concentration killing 50% of cells),SK-MEL-2,95.5 µM
same,TGI,SK-MEL-2,43.6 µM
same,GI50,OVCAR-3,2 µM
same,LC50,OVCAR-3,9.55 µM
same,TGI,OVCAR-3,4.37 µM
same,GI50,NCI-H460,2.4 µM
same,TGI,NCI-H460,4.9 µM
same,CC50,NCI-H460,28.8 µM
same,GI50,OVCAR-8,19.9 µM
same,LC50 (concentration killing 50% of cells),OVCAR-8,72.4 µM
same,TGI,OVCAR-8,38 µM
same,GI50,SF-295,7.24 µM
same,TGI,SF-295,19.5 µM
same,CC50,SF-295,44.7 µM
same,GI50,SK-MEL-5,6.46 µM
same,LC50,SK-MEL-5,44.7 µM
same,TGI,SK-MEL-5,19.1 µM
same,GI50,UO-31,19.5 µM
same,LC50 (concentration causing 50% net cell kill),UO-31,66.1 µM
same,TGI,UO-31,35.5 µM
same,GI50,HT-29,2.88 µM
same,TGI,HT-29,> 100 µM
same,CC50,HT-29,> 100 µM
same,GI50,786-0,14.1 µM
same,LC50,786-0,61.7 µM
same,TGI,786-0,29.5 µM
same,GI50,T47D,1.38 µM
same,LC50,T47D,> 100 µM
same,TGI,T47D,5.5 µM
ClCc1ccc(Cn2cnc3nc(Cl)nc(Cl)c32)cc1,growth at 100 µM,SF-268,0%
same,GI50,MCF7,4.16 µM
same,LC50 (concentration killing 50% of cells),MCF7,83.2 µM
same,TGI,MCF7,17 µM
same,GI50,BT-549,1.86 µM
same,LC50 (50% lethal concentration),BT-549,6.45 µM
same,TGI,BT-549,3.46 µM
same,GI50,ACHN,1.9 µM
same,TGI,ACHN,3.31 µM
same,CC50,ACHN,5.75 µM
same,GI50,NCI-H226,1.23 µM
same,TGI,NCI-H226,3.89 µM
same,CC50,NCI-H226,15.5 µM
same,GI50,SK-MEL-28,2.18 µM
same,LC50 (concentration killing 50% of cells),SK-MEL-28,> 100 µM
same,TGI,SK-MEL-28,5.12 µM
same,GI50,EKVX,1.9 µM
same,TGI,EKVX,3.46 µM
same,CC50,EKVX,6.3 µM
same,GI50,MDA-MB-435,1.62 µM
same,LC50,MDA-MB-435,5.75 µM
same,TGI,MDA-MB-435,3.01 µM
same,GI50,A498,11.2 µM
same,"LC50 (lethal concentration, 50% cell kill)",A498,49 µM
same,TGI,A498,23.4 µM
same,GI50,DU-145,1.81 µM
same,LC50,DU-145,6.6 µM
same,TGI,DU-145,3.46 µM
same,GI50,SNB-19,29.5 µM
same,LC50,SNB-19,> 100 µM
same,TGI,SNB-19,> 100 µM
same,GI50,SF-539,1.86 µM
same,LC50 (concentration killing 50% of cells),SF-539,5.88 µM
same,TGI,SF-539,3.31 µM
same,GI50,CAKI-1,1.44 µM
same,TGI,CAKI-1,2.75 µM
same,CC50,CAKI-1,5.37 µM
same,GI50,OVCAR-5,2.18 µM
same,TGI,OVCAR-5,4.26 µM
same,CC50,OVCAR-5,8.31 µM
same,GI50,U-251,1.77 µM
same,LC50 (concentration killing 50% of cells),U-251,5.75 µM
same,TGI,U-251,3.23 µM
same,GI50,NCI-H322M,0.67 µM
same,TGI,NCI-H322M,1.9 µM
same,CC50,NCI-H322M,4.46 µM
same,GI50,SW-620,13.2 µM
same,TGI,SW-620,28.8 µM
same,CC50,SW-620,64.6 µM
same,GI50,M14,1.44 µM
same,LC50,M14,6.91 µM
same,TGI,M14,3.16 µM
same,GI50,SN12C,1.86 µM
same,LC50 (50% lethal concentration),SN12C,6.6 µM
same,TGI,SN12C,3.46 µM
same,GI50,IGROV-1,1.41 µM
same,LC50,IGROV-1,5.75 µM
same,TGI,IGROV-1,2.81 µM
same,GI50,PC-3,17.8 µM
same,LC50 (concentration causing 50% cell kill),PC-3,75.9 µM
same,TGI,PC-3,37.1 µM
same,GI50,SK-MEL-2,1.12 µM
same,LC50 (concentration killing 50% of cells),SK-MEL-2,6.45 µM
same,TGI,SK-MEL-2,2.69 µM
same,GI50,OVCAR-3,0.3 µM
same,LC50,OVCAR-3,2.51 µM
same,TGI,OVCAR-3,0.72 µM
same,GI50,NCI-H460,15.5 µM
same,TGI,NCI-H460,35.5 µM
same,CC50,NCI-H460,79.4 µM
same,GI50,OVCAR-8,1.99 µM
same,LC50 (concentration killing 50% of cells),OVCAR-8,8.31 µM
same,TGI,OVCAR-8,4.07 µM
same,GI50,SF-295,1.81 µM
same,TGI,SF-295,3.31 µM
same,CC50,SF-295,5.88 µM
same,GI50,SK-MEL-5,2.45 µM
same,LC50,SK-MEL-5,31.6 µM
same,TGI,SK-MEL-5,9.12 µM
same,GI50,UO-31,1.44 µM
same,LC50 (concentration causing 50% net cell kill),UO-31,5.62 µM
same,TGI,UO-31,2.88 µM
same,GI50,HT-29,3.54 µM
same,TGI,HT-29,> 100 µM
same,CC50,HT-29,> 100 µM
same,GI50,786-0,1.9 µM
same,LC50,786-0,7.41 µM
same,TGI,786-0,3.71 µM
same,GI50,T47D,10.2 µM
same,LC50,T47D,> 100 µM
same,TGI,T47D,46.8 µM
